Ten compounds from PubChem BioAssay (NCI) can be followed below.

Structures are written as SMILES.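 Protocol summary: plate cells (96-well), add compound at 5 concentrations, incubate 48 h, interpolate endpoints linearly. Definition used: TGI = concentration required for complete inhibition of growth.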

Test systems include SW-620 colon; MDA-MB-231 breast; M14 melanoma; COLO 205 colon; OVCAR-5 ovarian; OVCAR-3 ovarian; SN12C renal; MALME-3M melanoma; OVCAR-4 ovarian; HS 578T breast; KM12 colon; SR leukemia; HCC-2998 colon; HOP-62 NSCLC; ACHN renal.
Common to all, as to assay: NCI tumour cell line growth inhibition, 48 h

For `CN1CC=C(OP(=O)(NCc2ccccc2)N(CCCl)CCCl)CC1` (stereo unspecified), the TGI in the assay with SW-620 colon, in the assay on MDA-MB-231 breast, in the assay with M14 melanoma, in the assay with COLO 205 colon, with OVCAR-5 ovarian and in the assay with OVCAR-3 ovarian was more than 100 µM each time. In addition, the TGI in the assay on SN12C renal, with MALME-3M melanoma, in the assay with OVCAR-4 ovarian, in the assay on HS 578T breast, with KM12 colon and with SR leukemia was more than 100 µM in each case. Moreover, the TGI in the assay on HCC-2998 colon, in the assay with HOP-62 NSCLC and with ACHN renal was more than 100 µM throughout.
`CC(=O)Nc1c(C)cc(OCC(=O)O)cc1C`: the TGI in the assay with SW-620 colon, in the assay with MDA-MB-231 breast, in the assay with M14 melanoma, in the assay on COLO 205 colon, in the assay with OVCAR-5 ovarian and in the assay with OVCAR-3 ovarian was more than 100 µM in each case. The TGI in the assay on SN12C renal, in the assay with MALME-3M melanoma, with OVCAR-4 ovarian, with HS 578T breast, in the assay with KM12 colon and in the assay with SR leukemia was more than 100 µM each time. For the same compound, the TGI in the assay on HCC-2998 colon, in the assay with HOP-62 NSCLC and with ACHN renal was more than 100 µM each time.
Turning to `COc1ccc2oc(=N)c(C(N)=S)cc2c1`, the TGI with SW-620 colon is more than 100 µM; with MDA-MB-231 breast it was 54.1 µM; in the assay with M14 melanoma it was more than 100 µM; in the assay on COLO 205 colon, more than 100 µM; in the assay with OVCAR-5 ovarian it was more than 100 µM; in the assay on SN12C renal it was 82.8 µM. For the same compound, the TGI with MALME-3M melanoma is 32.9 µM; in the assay with OVCAR-4 ovarian, more than 100 µM; with HS 578T breast, 58.6 µM; in the assay on KM12 colon, 84.8 µM; in the assay on SR leukemia, more than 100 µM; with HCC-2998 colon it was 33.6 µM. Moreover, the TGI was more than 100 µM in the assay on HOP-62 NSCLC and 79.2 µM with ACHN renal.
In the case of `CN(C)c1ccc(C(C#N)N2CCCN(C(C#N)c3ccc(N(C)C)cc3)C2c2ccc(N(C)C)cc2)cc1` (stereo unspecified), the TGI with SW-620 colon, with MDA-MB-231 breast, in the assay with M14 melanoma, in the assay on COLO 205 colon, in the assay with OVCAR-5 ovarian and in the assay on OVCAR-3 ovarian was more than 100 µM in each case. In addition, the TGI in the assay on SN12C renal, in the assay on MALME-3M melanoma, in the assay with OVCAR-4 ovarian, with HS 578T breast, in the assay on KM12 colon and in the assay with SR leukemia was more than 100 µM throughout. Also, the TGI with HOP-62 NSCLC and in the assay on ACHN renal was more than 100 µM throughout.
`COc1ccc(CSCc2cc(OC)c(OC)c(OC)c2)cc1`: the TGI with SW-620 colon, in the assay with MDA-MB-231 breast, with M14 melanoma, in the assay on COLO 205 colon, with OVCAR-5 ovarian and in the assay on OVCAR-3 ovarian was more than 100 µM throughout. The TGI with SN12C renal is more than 100 µM; with MALME-3M melanoma it was more than 31.6 µM; in the assay with OVCAR-4 ovarian it was more than 100 µM; in the assay on HS 578T breast, more than 100 µM; in the assay on KM12 colon, more than 100 µM; with SR leukemia it was more than 100 µM. Also, the TGI in the assay on HCC-2998 colon is more than 31.6 µM; in the assay on HOP-62 NSCLC it was more than 100 µM; in the assay on ACHN renal, more than 100 µM.
Turning to `COC(=O)n1c(=O)nc2c3c(ncn21)Oc1c(c(-c2ccccc2)nn1-c1ccccc1)C3c1ccc(Cl)cc1` (stereo unspecified), the TGI was found to be 3.06 µM with SW-620 colon; 3.05 µM with MDA-MB-231 breast; 2.75 µM in the assay on M14 melanoma; 2.76 µM in the assay with COLO 205 colon; 2.58 µM in the assay with OVCAR-5 ovarian; 2.72 µM in the assay on OVCAR-3 ovarian. The TGI in the assay on SN12C renal is 3.1 µM; with MALME-3M melanoma it was 2.21 µM; in the assay with OVCAR-4 ovarian it was 4.66 µM; in the assay with HS 578T breast it was 2.62 µM; in the assay with KM12 colon, 2.66 µM; with SR leukemia, 4.31 µM. Also, the TGI in the assay on HCC-2998 colon is 2.72 µM; in the assay on HOP-62 NSCLC, 3.09 µM; in the assay with ACHN renal, 3.21 µM.
Regarding `Cc1ccc2c(ccc3c[n+]4ccccc4c(C)c32)c1`, the TGI in the assay on SW-620 colon is 22.8 µM; with MDA-MB-231 breast, 23.1 µM; with M14 melanoma, 20.9 µM; with COLO 205 colon, 3.84 µM; in the assay on OVCAR-5 ovarian, 65 µM; in the assay on OVCAR-3 ovarian, 4.02 µM. For the same compound, the TGI is 3.46 µM with SN12C renal; 2.98 µM with MALME-3M melanoma; 10.8 µM with OVCAR-4 ovarian; 15.3 µM in the assay on HS 578T breast; 2.5 µM with KM12 colon; 46.3 µM with SR leukemia. The TGI amounted to 17.9 µM with HCC-2998 colon, 11.3 µM in the assay on HOP-62 NSCLC and 39 µM in the assay with ACHN renal.
As to `COc1ccc(NS(=O)CCc2ccccc2)cc1` (stereo unspecified), the TGI in the assay on SW-620 colon, in the assay on MDA-MB-231 breast, with M14 melanoma, in the assay with COLO 205 colon, in the assay with OVCAR-5 ovarian and with OVCAR-3 ovarian was more than 100 µM in each case. Besides, the TGI in the assay with SN12C renal, in the assay with MALME-3M melanoma, with HS 578T breast, in the assay on KM12 colon, with SR leukemia and in the assay on HCC-2998 colon was more than 100 µM each time. Further, the TGI with HOP-62 NSCLC and in the assay with ACHN renal was more than 100 µM throughout.
For the compound `O=C1C(NCCc2cc(Br)c(O)c(Br)c2)=CC(=O)c2ncccc21`, the TGI with SW-620 colon was more than 57.7 µM; with MDA-MB-231 breast, 29.5 µM; in the assay on M14 melanoma it was 8.36 µM; with COLO 205 colon, 19.2 µM; with OVCAR-5 ovarian it was 20.2 µM; in the assay on OVCAR-3 ovarian, 6.26 µM. Further, the TGI amounted to 14.7 µM in the assay on SN12C renal; 2.84 µM in the assay with MALME-3M melanoma; 16.7 µM in the assay on OVCAR-4 ovarian; 9.2 µM in the assay on HS 578T breast; 20.1 µM with KM12 colon; 6.46 µM with SR leukemia. In addition, the figures for the TGI in the assay with HCC-2998 colon, with HOP-62 NSCLC and in the assay on ACHN renal were 26 µM, 9.99 µM and 24.9 µM, respectively.
With `CCOP(=O)(CS(C)=O)O[C@@H]1C[C@H](C)CC[C@H]1C(C)C` (stereo partly specified), the TGI is 14.6 µM in the assay with SW-620 colon; 12.8 µM in the assay on MDA-MB-231 breast; 31.2 µM with M14 melanoma; 19.8 µM in the assay with COLO 205 colon; 15.2 µM in the assay with OVCAR-5 ovarian; 15.7 µM with OVCAR-3 ovarian. Also, the TGI in the assay with SN12C renal is 6.12 µM; in the assay with MALME-3M melanoma, 26.8 µM; with OVCAR-4 ovarian, more than 39.3 µM; in the assay with HS 578T breast, 11.3 µM; in the assay on KM12 colon, more than 28.7 µM; in the assay on SR leukemia, more than 100 µM. Further, the figures for the TGI with HOP-62 NSCLC and in the assay with ACHN renal were 21.4 µM and 15.8 µM, respectively.
